Data reported in patent US12492173B2, “Herbicidal substituted N-tetrazolyl aryl carboxamides” (Bayer Aktiengesellschaft, priority 2019, dated 2025).

Columns and labels:
Type in all cases: in vivo
[1] = system: Alopecurus myosuroides; test: Post-emergence herbicidal action, ALOMY; set-up: key: % herbicidal action vs untreated; 100 = plants died, 0 = like control
Procedure, shortened: (§1)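 Treatment: post-emergence spray, one-leaf stage. Medium: sandy loam, greenhouse. Carrier: 600–800 l/ha water, 0.2% wetting agent. Read-out: visual % activity at ~3 weeks, untreated plants as reference.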

[2] = system: Viola tricolor; test: Post-emergence herbicidal action, VIOTR; set-up: key: % herbicidal action vs untreated; 100 = plants died, 0 = like control
Procedure, shortened: as §1

[3] = system: Pharbitis purpurea; test: Post-emergence herbicidal action, PHBPU
Procedure, shortened: as §1

[4] = system: Stellaria media; test: Post-emergence herbicidal action, STEME; set-up: key: % herbicidal action vs untreated; 100 = plants died, 0 = like control
Procedure, shortened: as §1

[5] = system: Stellaria media; test: Pre-emergence herbicidal action, STEME; set-up: key to Herbicidal action against STEME: % activity: 100 = plants have died, 0 = like control plants; details: for herbicidal activity STEME: dosage 320 g/ha, scored visually after 3 weeks vs untreated controls (100% = plants have died)
Procedure, shortened: (§2)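 Visual scoring after 3 weeks in the greenhouse, relative to untreated pots, gave percent activity, where 100% means dead plants and 0% equals controls. Treatment was a pre-emergence soil-surface spray of WP or EC formulations in water (600 to 800 l/ha, 0.2% wetting agent) over seeds covered in sandy loam.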

[6] = system: Viola tricolor; test: Pre-emergence herbicidal action, VIOTR; set-up: key to Herbicidal action against VIOTR: % activity: 100 = plants have died, 0 = like control plants; details: for herbicidal activity VIOTR: dosage 320 g/ha, scored visually after 3 weeks vs untreated controls (100% = plants have died)
Procedure, shortened: as §2

[7] = comparative experiment, 20 g of a.i./ha

Structure (SMILES)	Herbicidal action against ALOMY ([1]; comparative experiment, post-emergence, 5 g of a.i./ha)	herbicidal action ALOMY ([1]; post-emergence, dosage 80 g/ha) [%]	herbicidal action VIOTR ([2]; post-emergence, dosage 80 g/ha) [%]	herbicidal action PHBPU ([3]; post-emergence, dosage 80 g/ha) [%]	herbicidal action STEME ([4]; post-emergence, dosage 80 g/ha) [%]	herbicidal activity STEME [5] [%]	herbicidal activity VIOTR [6] [%]	herbicidal action ALOMY ([1]; Dosage 80 g/ha)	herbicidal action VIOTR ([2]; Dosage 80 g/ha)	herbicidal action PHBPU ([3]; Dosage 80 g/ha)	herbicidal action STEME ([4]; Dosage 80 g/ha)	Herbicidal action against STEME [5, 7]	Herbicidal action against VIOTR [6, 7]
Cn1nnnc1NC(=O)c1ccc(C(F)(F)F)c(CS(C)(=O)=O)c1Cl [Example 1-298]	70	100	100	100	100	100	100	–	–	–	–	–	–
CCS(=O)(=O)Cc1c(C(F)(F)F)ccc(C(=O)Nc2nnnn2C)c1Cl [Example 1-301]	–	–	–	–	–	90	100	80	100	100	100	–	–
C=CCSCc1c(C(F)(F)F)ccc(C(=O)Nc2nnnn2C)c1Cl [Example 1-308]	–	100	90	100	100	100	100	–	–	–	–	–	–
CSCc1c(C(F)(F)F)ccc(C(=O)Nc2nnnn2C)c1Br [Example 1-380]	–	90	100	90	100	90	100	–	–	–	–	–	–
Cn1nnnc1NC(=O)c1ccc(C(F)(F)F)c(C[S+](C)[O-])c1Br (stereo not drawn) [Example 1-381]	–	80	100	100	100	90	100	–	–	–	–	90	90
CCn1nnnc1NC(=O)c1ccc(C(F)F)c(CSC)c1C [Example 2-107]	–	–	–	–	–	90	100	80	100	90	100	–	–
CCn1nnnc1NC(=O)c1ccc(C(F)(F)F)c(CSC)c1SC [Example 2-161]	–	80	100	90	100	100	100	–	–	–	–	–	–
CCn1nnnc1NC(=O)c1ccc(C(F)(F)F)c(CS(C)(=O)=O)c1SC [Example 2-163]	–	–	–	–	–	90	100	90	100	90	100	–	–
CCn1nnnc1NC(=O)c1ccc(C)c(CSC)c1Cl [Example 2-287]	–	–	–	–	–	80	90	100	100	90	100	–	–
CCn1nnnc1NC(=O)c1ccc(C(F)(F)F)c(CSC)c1Br [Example 2-380]	–	80	100	90	100	80	100	–	–	–	–	–	–
CCn1nnnc1NC(=O)c1ccc(C(F)(F)F)c(C[S+](C)[O-])c1Br (stereo not drawn) [Example 2-381]	–	80	100	100	100	90	100	–	–	–	–	–	–
CCn1nnnc1NC(=O)c1ccc(C(F)(F)F)c(CS(C)(=O)=O)c1Br [Example 2-382]	–	–	–	–	–	90	100	80	100	100	100	–	–
CCSCc1c(C(F)(F)F)ccc(C(=O)Nc2nnnn2CC)c1Br [Example 2-383]	–	80	100	90	90	100	100	–	–	–	–	–	–
CCCn1nnnc1NC(=O)c1ccc(C(F)(F)F)c(CS(C)(=O)=O)c1OC [Example 3-136]	–	–	–	–	–	100	100	90	100	90	100	–	–
CCCn1nnnc1NC(=O)c1ccc(C(F)(F)F)c(CSC)c1Cl [Example 3-296]	–	–	–	–	–	100	100	80	100	90	100	–	–
CCCn1nnnc1NC(=O)c1ccc(C(F)(F)F)c(C[S+](C)[O-])c1Cl (stereo not drawn) [Example 3-297]	–	90	100	90	100	100	100	–	–	–	–	–	–
CCCn1nnnc1NC(=O)c1ccc(C(F)(F)F)c(CSCC)c1Cl [Example 3-299]	–	–	–	–	–	90	100	80	100	90	100	–	–
CCCn1nnnc1NC(=O)c1ccc(C(F)F)c(CSC)c1Cl [Example 3-320]	–	–	–	–	–	100	100	80	100	90	100	–	–
CCCn1nnnc1NC(=O)c1ccc(C(F)(F)F)c(C[S+](C)[O-])c1Br (stereo not drawn) [Example 3-381]	–	80	100	100	100	90	100	–	–	–	–	–	–
CCCn1nnnc1NC(=O)c1ccc(C(F)(F)F)c(CSCC)c1Br [Example 3-383]	–	–	–	–	–	100	100	80	100	90	100	–	–
